Reference: patent US20030114504A1, “Compositions and methods for the treatment of cancer” (priority 2001, published 2003)

Columns and labels:
A2780S cells [1] = test: Inhibition of tumor cell proliferation in vitro, 72 hour treatment; assay type: cell-based; details: Homo sapiens
[2] = system: A2780 ovarian carcinoma cells; test: Clonogenic growth assay and drug combination studies; assay type: cell-based, human; details: clonogenic assays, single agent
A2780S cells [3] = test: Cell cycle analysis by flow cytometry; assay type: cell-based, human; details: 170 nM
Method: Log phase A2780s cells were plated overnight in 6 well plates. […] Cells were harvested by trypsinization followed by centrifugation. Cell pellets were then resuspended by vortexing in 1 ml 80% methanol and fixed overnight at −20° C. Cells were recovered by centrifugation and washed two times with 1 ml of PBS. Cells were resuspended in 1 ml PBS, 2% FBS, 0.25% Triton X-100 and incubated at 4° C. for 10 minutes. Cells were again recovered by centrifugation and resuspended in 50 μl PBS, 2% FBS, 0.1% Triton X-100. Anti-Phospho-Threonine Proline antibody (IgM, New England Biolabs #9391S) was added and the cells were incubated for 30 minutes at 4° C. Cells were washed with PBS, 2% FBS, 0.1% Triton X-100 and resuspended in 50 μl PBS, 2% FBS, 0.1% Triton X-100. FITC-anti-Mouse antibody (Pharmingen #12064D) was added and incubated for 30 minutes at 4° C. in the dark. Cells were washed with PBS, 2% FBS, 0.1% Triton X-100 and resuspended in Propidium Iodide/RNase in PBS (10 μg/ml PI, 100 μg/ml RNase (DNase free)) and incubated at 37° C. for 30 minutes in the dark. Samples were analyzed using a flow cytometer.

[4] = system: PARP cleavage in A2780S cells; test: PARP cleavage by western blot; assay type: cell-based, human; details: 24 hour time point
Method: FIG. 3. […]. Protein extracts were then examined by western blot using an anti-PARP antibody (Clonetech). The arrow signifies caspase cleaved PARP protein fragment.
Compound treated A2780S cells were harvested at approximately 70% confluence and total protein was prepared by lysing the cells in RIPA [50 mM Tris (pH8), 150 mM NaCl, 1% NP-40, 0.5% Na-deoxycolate, 0.1% SDS, 0.1% Na3VO4, 0.1 mM NaF, 10 mM β-glycerophosphate, plus Complete® protease inhibitors (Boehringer Mannhiem)] buffer. Cell pellets were resuspended at a density of<2×10^7 cells/ml and incubated for 20 minutes on ice followed by a high speed 14,000 rpm centrifugation. The protein supernatant was then removed from the debris and protein content was quantitated using the Micro-BCA assay (Pierce). Treated extracts (25 microgram/lane) were then separated using a 10% SDS-polyacrylamide gel (10.5×14 cm). Proteins were then transferred from the gel to PVDF-membrane (Millipore) by exposure to […] in a semi-dry blotting apparatus (Hoeffer). PVDF protein blots were then blocked with 5% non-fat milk in TTBS (0.1% Tween 20 in Tris-buffered saline). […]. The blots were then washed three times with TTBS and developed with ECL-plus western blotting detection system (Amersham).

in vivo = details: Balb/c nu/nu nude, mouse, in vivo
Method: (§1) In vivo Antitumor Testing
(§2) Paclitaxel was dissolved in a 50/50 mixture of ethanol and Cremophor® and stored at 4° C.; final dilution of paclitaxel was obtained immediately before drug administration with NaCl 0.9%. 5-FU was dissolved in normal saline (NaCl 0.9%). […] The volume of all compounds injected was 0.01 ml/g of mouse weight.
(§3) Solid Tumor Xenografts in Nude Mice.
(§4) All solid tumors were maintained in Balb/c nu/nu nude mice. Tumors were propagated as subcutaneous transplants using tumor fragments obtained from donor mice. All tumor implants for efficacy testing were subcutaneous (sc).
(§5) The required number of animals needed to detect a meaningful response were grouped at the start of the experiment and each was given a subcutaneous implant of a tumor fragment (˜50 mg) with a 13-gauge trocar. For treatment of early-stage tumors, the animals were again grouped before distribution to the various treatment and control groups. For treatment of animals with advanced-stage disease, tumors were allowed to grow to the pre-determined size window (animals with tumors outside the range were excluded) and animals were evenly distributed to various treatment and control groups. Treatment of each animal was based on individual body weight. Treated animals were checked daily for treatment related toxicity/mortality. Each group of animals was weighed before the initiation of treatment (Wt1) and then again following the last treatment dose (Wt2). The difference in body weight (Wt2-Wt1) provides a measure of treatment-related toxicity.
(§6) Tumor response was determined by measurement of tumors with a caliper twice a week, until the tumors reach a predetermined “target” size of 1 g. Tumor weights (mg) were estimated from the Formula: […]
(§7) Antitumor activity was evaluated at the maximum tolerated dose (MTD) which is defined as the dose level immediately […] which excessive toxicity (i.e. more than one death) occurred. […] When death occured, the day of death was recorded.
(§8) Tumor response end-point was expressed in terms of tumor growth delay (T-C value), defined as the difference in time (days) required for the treated tumors (T) to reach a predetermined target size compared to those of the control group ®.
(§9) To estimate tumor cell kill, the tumor volume doubling time (TVDT) was first calculated with the Formula:
(§10) TVDT=Median time (days) for control tumors to reach target size−Median time (days) for control tumors to reach half the target size

[5] = system: Colo205 human colon carcinoma; test: Colo205 xenograft in nude mice; details: for tumor regression: at MTD; for antitumor activity (in words): head-to-head at MTD
Method: as §1, §2, §3, §4, §5, §6, §7, §8, §9, §10

[6] = system: A2780 human ovarian carcinoma; test: A2780 xenograft in nude mice; assay type: in vivo
[7] = system: P388 mouse leukemia, Cyclin E transgenic mouse breast carcinoma, A2780, Colo205 and A431 tumor models; test: Multiple murine and human tumor models in vivo; design: species or system mice
Text: The following tumors were used: A2780 human ovarian carcinoma, Br-cycE murine breast carcinoma, A431 human squamous cell carcinoma and Colo 205 colorectal carcinoma.
Compound 1 was compared head to head with flavopiridol in each of these models.

Structure (SMILES): CC(C)(C)c1cnc(CSc2cnc(NC(=O)C3CCNCC3)s2)o1 [Compound 1, N-[5-[[[5-(1,1-Dimethylethyl)-2-oxazolyl]methyl]thio]-2-thiazolyl]-4-piperidinecarboxamide]
- IC90 (A2780S cells [1]): 170 nM
- drug exposure sufficient to elicit a maximal anti-proliferative response [2]: 8 h
- % Apo (sub-G1 cells by DNA staining) (A2780S cells [3]; 8 hr. exposure): 6%
- % G1 (A2780S cells [3]; 8 hr. exposure): 56%
- % G2 (A2780S cells [3]; 8 hr. exposure): 22%
- % M (A2780S cells [3]; 8 hr. exposure): 1%
- % S (A2780S cells [3]; 8 hr. exposure): 15%
- % Apo (sub-G1 cells by DNA staining) (A2780S cells [3]; 24 hr. exposure): 32 ± 12%
- % G1 (A2780S cells [3]; 24 hr. exposure): 45%
- % G2 (A2780S cells [3]; 24 hr. exposure): 9.7%
- % M (A2780S cells [3]; 24 hr. exposure): 0.3%
- % S (A2780S cells [3]; 24 hr. exposure): 8%
- PARP cleavage (caspase activation) [4]: Extensive cleavage
- MTD at 8 days (in vivo; ip): 36 mg/kg
- log cell kill (LCK) ([5]; MTD of 36 mg/kg, IP, QD×8): > 2.0 LCK
- tumor regression [5]: tumor regression
- antitumor activity (in words) [5]: marked antitumor activity
- schedule dependence of activity ([6]; IP): qdx8=qdx14>>>q2dx5=q4dx3
- efficacy ([6]; dosed IP, qdx8 schedule, multiple dose levels): curative efficacy
- efficacy ([6]; dosed orally, qdx8 schedule): modest efficacy
- efficacy ([6]; single 24 hour continuous infusion at the MTD): curative efficacy
- anti-tumor activity in vivo [7]: broad spectrum anti-tumor activity

Structure (SMILES): O=c1[nH]cc(F)c(=O)[nH]1 [Compound 5-FU, 5-fluorouracil, reference compound]
- tumor regression [5]: failed to achieve tumor regression
- antitumor activity (in words) [5]: considerably less active

Structure (SMILES): CC(=O)O[C@H]1C(=O)[C@@]2(C)[C@H]([C@H](OC(=O)c3ccccc3)[C@]3(O)C[C@H](OC(=O)[C@H](O)[C@@H](NC(=O)c4ccccc4)c4ccccc4)C(C)=C1C3(C)C)[C@]1(OC(C)=O)CO[C@@H]1C[C@@H]2O [Paclitaxel, paclitaxel, reference compound]
- MTD (in vivo; iv): 36 mg/kg
- antitumor activity (in words) [5]: comparable to Compound 1
